Reference: patent US11231416B2, “Virus-like particle (VLP) based small molecule-protein interaction trap” (VIB VZW, priority 2015, dated 2022)
Like-named read-outs stand apart in the source and are kept apart here.

Legend:
FAM62A = tested on: FAM62A
Description: (§1) For mass spectrometry, 10^7 HEK293T cells were seeded in five flasks (75 cm^2) and transfected the next day with a total of 15 μg DNA per flask using polyethylene imine reagent. The following DNA quantities were used per flask: 7.5 μg of GAG-eDHFR, 5.4 μg of mock vector and 2.1 μg of a 50/50 mix of pMD2.G and pcDNA3-FLAG-VSV-G. The small molecule fusions were added immediately after transfection to the producing cells at a concentration of 1 μM. The same dilution of dimethyl sulfoxide (DMSO) was added in control experiments to control the effect of this chemical on the cells. The cellular supernatant was harvested after 32 hours and was centrifuged for 3 minutes at 450×g to remove cellular debris. The cleared supernatant was then filtered using 0.45 μm filters (Millipore). A total of 100 μl MyOne™ Streptavidin T1 beads (Life Technologies) pre-loaded with 10 μg ANTI-FLAG® BioM2-Biotin antibody (Sigma-Aldrich®) was used to bind the tagged particles. Particles were allowed to bind for 2 hours by end-over-end rotation. The total supernatant was processed in three consecutive binding steps. Bead-particle complexes were washed once with washing buffer (TWB: 20 mM Tris-HCl pH 7.5, 150 mM NaCl) and were then eluted with FLAG peptide (200 μg/ml in TWB) and lysed by addition of SDS to a final concentration of 0.1%. After 5 minutes, SDS was removed using HiPPR Detergent Removal Spin Columns (Pierce, Thermo Scientific) followed by boiling and overnight digestion with 0.5 μg sequence-grade trypsin (Promega). After acidification (0.1% TFA final), the peptides were separated by nano-LC and directly analyzed with a Q Exactive instrument (Thermo Scientific).
(§2) For tamoxifen, four biological repeats were performed where the cells were treated with MTX-PEG6-tamoxifen after transfection. The obtained protein lists after viral trapping and MS analysis were challenged with protein lists coming from the four DMSO controls, the 19 control experiments and the lists obtained for the MTX-PEG6-simvastatin and MTX-PEG6-reversine (see below) for a total of 30 samples.

C28H10ORF35 = details: all proteins (incl. low confidence identifications)
Description: as §1, §2

PRSS3 = details: all proteins (incl. low confidence identifications)
Description: as §1, §2

RTN3 = target: T1, RTN3 (Homo sapiens, UniProt O95197); assay: Viral trapping in VLPs, MS analysis; assay type: binding; details: all proteins (incl. low confidence identifications)
T1 construct: endogenous in cells; host or cells: HEK293T
T1 sequence (O95197 whole entry): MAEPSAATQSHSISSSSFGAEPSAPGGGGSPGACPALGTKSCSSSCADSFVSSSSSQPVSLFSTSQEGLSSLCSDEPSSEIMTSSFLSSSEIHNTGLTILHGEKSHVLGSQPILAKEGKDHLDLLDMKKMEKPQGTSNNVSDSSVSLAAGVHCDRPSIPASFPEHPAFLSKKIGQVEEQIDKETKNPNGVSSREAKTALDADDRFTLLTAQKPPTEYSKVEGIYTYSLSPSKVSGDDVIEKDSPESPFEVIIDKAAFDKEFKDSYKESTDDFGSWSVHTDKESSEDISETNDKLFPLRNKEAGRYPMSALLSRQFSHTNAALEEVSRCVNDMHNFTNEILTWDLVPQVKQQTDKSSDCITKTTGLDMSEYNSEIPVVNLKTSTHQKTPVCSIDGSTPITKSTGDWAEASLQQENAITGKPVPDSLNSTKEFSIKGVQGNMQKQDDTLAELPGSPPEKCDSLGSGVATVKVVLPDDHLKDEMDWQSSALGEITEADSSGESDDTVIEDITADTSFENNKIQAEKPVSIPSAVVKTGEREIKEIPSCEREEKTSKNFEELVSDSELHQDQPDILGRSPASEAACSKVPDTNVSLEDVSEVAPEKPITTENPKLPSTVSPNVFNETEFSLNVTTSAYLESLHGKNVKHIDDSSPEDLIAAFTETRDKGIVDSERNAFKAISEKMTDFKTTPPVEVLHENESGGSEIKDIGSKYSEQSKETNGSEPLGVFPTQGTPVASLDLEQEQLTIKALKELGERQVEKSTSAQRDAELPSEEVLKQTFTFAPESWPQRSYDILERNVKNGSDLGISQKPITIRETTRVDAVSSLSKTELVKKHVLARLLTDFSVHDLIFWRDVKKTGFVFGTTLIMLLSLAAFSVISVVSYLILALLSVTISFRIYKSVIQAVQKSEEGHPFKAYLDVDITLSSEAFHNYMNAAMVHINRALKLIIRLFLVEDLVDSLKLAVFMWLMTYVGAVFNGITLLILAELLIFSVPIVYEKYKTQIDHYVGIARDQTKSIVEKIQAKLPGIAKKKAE
Description: as §1, §2

MINK1 = target: T2, MINK1 (Homo sapiens, UniProt Q8N4C8); assay: Viral trapping in VLPs, MS analysis; assay type: binding; details: all proteins (incl. low confidence identifications)
T2 construct: endogenous in cells; host or cells: HEK293T
Description: as §1, §2

NCS1 = target: T3, NCS1 (Homo sapiens, UniProt P62166); assay: Viral trapping in VLPs, MS analysis; assay type: binding; details: all proteins (incl. low confidence identifications)
T3 construct: endogenous in cells; host or cells: HEK293T
T3 sequence (P62166 whole entry): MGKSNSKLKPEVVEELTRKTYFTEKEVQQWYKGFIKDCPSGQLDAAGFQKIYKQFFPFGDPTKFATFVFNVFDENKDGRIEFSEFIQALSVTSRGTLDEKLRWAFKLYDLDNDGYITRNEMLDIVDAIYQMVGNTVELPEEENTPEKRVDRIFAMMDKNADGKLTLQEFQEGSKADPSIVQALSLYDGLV
Description: as §1, §2

REEP6 = target: T4, REEP6 (Homo sapiens, UniProt Q96HR9); assay: Viral trapping in VLPs, MS analysis; assay type: binding
T4 construct: endogenous in cells; host or cells: HEK293T
T4 sequence (Q96HR9 1-184 isoform Q96HR9-2): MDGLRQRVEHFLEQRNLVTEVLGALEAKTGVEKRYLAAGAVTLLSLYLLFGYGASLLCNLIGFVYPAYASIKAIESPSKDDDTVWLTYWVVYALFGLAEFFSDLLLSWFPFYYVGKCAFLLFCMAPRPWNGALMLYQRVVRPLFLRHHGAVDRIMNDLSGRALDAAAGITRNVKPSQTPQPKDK
Description: as §1, §2

CALU = target: T5, CALU (Homo sapiens, UniProt O43852); assay: Viral trapping in VLPs, MS analysis; assay type: binding; details: all proteins (incl. low confidence identifications)
T5 construct: endogenous in cells; host or cells: HEK293T
T5 sequence (O43852 20-315): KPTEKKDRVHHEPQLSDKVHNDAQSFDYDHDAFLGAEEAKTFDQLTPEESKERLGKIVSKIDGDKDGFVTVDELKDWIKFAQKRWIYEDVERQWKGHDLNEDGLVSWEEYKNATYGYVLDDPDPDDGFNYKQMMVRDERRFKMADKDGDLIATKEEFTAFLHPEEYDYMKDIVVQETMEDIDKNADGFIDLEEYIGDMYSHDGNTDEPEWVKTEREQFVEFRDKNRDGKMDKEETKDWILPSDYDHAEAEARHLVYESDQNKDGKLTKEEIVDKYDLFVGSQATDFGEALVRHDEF
Description: as §1, §2

GRAMD4 = target: T6, GRAMD4 (Homo sapiens, UniProt Q6IC98); assay: Viral trapping in VLPs, MS analysis; assay type: binding; details: all proteins (incl. low confidence identifications)
T6 construct: endogenous in cells; host or cells: HEK293T
Description: as §1, §2

CYP51A1 = target: T7, CYP51A1 (Homo sapiens, UniProt Q16850); assay: Viral trapping in VLPs, MS analysis; assay type: binding; details: all proteins (incl. low confidence identifications)
T7 construct: endogenous in cells; host or cells: HEK293T
Description: as §1, §2

RNF5 = target: T8, RNF5 (Homo sapiens, UniProt Q99942); assay: Viral trapping in VLPs, MS analysis; assay type: binding; details: all proteins (incl. low confidence identifications)
T8 construct: endogenous in cells; host or cells: HEK293T
Description: as §1, §2

ITPRIPL1 = target: T9, ITPRIPL1 (Homo sapiens, UniProt Q6GPH6); assay: Viral trapping in VLPs, MS analysis; assay type: binding; details: all proteins (incl. low confidence identifications)
T9 construct: endogenous in cells; host or cells: HEK293T
T9 sequence (Q6GPH6 25-555): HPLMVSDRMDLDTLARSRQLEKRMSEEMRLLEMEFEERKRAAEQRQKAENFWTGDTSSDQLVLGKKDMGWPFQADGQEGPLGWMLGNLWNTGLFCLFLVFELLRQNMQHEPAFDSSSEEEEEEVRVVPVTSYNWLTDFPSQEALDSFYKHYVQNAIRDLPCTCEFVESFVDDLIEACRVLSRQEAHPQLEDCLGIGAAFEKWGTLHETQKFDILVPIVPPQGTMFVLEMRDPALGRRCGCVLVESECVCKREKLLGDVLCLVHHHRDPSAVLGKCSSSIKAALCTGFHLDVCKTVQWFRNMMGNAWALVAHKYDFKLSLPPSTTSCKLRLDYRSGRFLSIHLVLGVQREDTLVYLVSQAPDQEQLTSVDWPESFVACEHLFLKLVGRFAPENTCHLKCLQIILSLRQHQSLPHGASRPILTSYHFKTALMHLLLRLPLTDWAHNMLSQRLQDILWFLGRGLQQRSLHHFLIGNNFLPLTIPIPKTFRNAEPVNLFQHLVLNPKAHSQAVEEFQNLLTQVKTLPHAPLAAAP
Description: as §1, §2

ATL2 = target: T10, ATL2 (Homo sapiens, UniProt Q8NHH9); assay: Viral trapping in VLPs, MS analysis; assay type: binding; details: all proteins (incl. low confidence identifications)
T10 construct: endogenous in cells; host or cells: HEK293T
T10 sequence (Q8NHH9 whole entry): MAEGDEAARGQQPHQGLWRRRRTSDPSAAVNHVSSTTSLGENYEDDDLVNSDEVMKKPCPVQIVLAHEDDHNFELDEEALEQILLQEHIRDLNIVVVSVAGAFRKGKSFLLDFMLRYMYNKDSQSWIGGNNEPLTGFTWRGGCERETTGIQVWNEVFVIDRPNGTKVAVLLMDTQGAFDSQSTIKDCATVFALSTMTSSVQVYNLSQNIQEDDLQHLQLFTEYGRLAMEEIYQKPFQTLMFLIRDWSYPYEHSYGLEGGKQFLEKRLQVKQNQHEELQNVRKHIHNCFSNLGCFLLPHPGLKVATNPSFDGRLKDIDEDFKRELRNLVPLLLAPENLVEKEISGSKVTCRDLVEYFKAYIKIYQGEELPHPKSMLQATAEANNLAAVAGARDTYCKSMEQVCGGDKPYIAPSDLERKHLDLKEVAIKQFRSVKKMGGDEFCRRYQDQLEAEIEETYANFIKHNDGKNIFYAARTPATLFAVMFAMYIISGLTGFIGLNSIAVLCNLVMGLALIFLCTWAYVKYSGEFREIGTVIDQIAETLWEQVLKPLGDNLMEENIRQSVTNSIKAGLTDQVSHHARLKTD
Description: as §1, §2

SEC61B = target: T11, SEC61B (Homo sapiens, UniProt P60468); assay: Viral trapping in VLPs, MS analysis; assay type: binding; details: all proteins (incl. low confidence identifications)
T11 construct: endogenous in cells; host or cells: HEK293T
T11 sequence (P60468 2-96 limits assumed): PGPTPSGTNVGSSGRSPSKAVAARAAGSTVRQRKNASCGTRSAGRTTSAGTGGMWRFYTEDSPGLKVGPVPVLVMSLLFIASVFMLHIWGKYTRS
T11 sequence (P61619 whole entry partner): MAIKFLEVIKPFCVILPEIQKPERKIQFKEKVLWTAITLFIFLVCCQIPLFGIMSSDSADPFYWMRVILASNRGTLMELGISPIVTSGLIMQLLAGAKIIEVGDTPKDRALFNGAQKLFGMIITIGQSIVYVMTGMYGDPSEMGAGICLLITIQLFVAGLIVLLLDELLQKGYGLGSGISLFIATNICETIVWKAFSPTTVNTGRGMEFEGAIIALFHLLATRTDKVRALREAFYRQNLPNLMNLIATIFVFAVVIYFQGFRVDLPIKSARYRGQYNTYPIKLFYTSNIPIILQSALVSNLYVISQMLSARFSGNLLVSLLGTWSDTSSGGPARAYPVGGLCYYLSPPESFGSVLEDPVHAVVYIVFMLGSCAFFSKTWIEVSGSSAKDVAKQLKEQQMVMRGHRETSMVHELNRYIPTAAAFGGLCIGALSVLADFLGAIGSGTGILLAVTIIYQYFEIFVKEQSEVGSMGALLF
T11 sequence (P60059 whole entry partner): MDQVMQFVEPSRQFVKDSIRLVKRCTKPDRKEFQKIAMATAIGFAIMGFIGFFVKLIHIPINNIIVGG
Description: as §1, §2

HSD17B4 = target: T12, HSD17B4 (Homo sapiens, UniProt P51659); assay: Viral trapping in VLPs, MS analysis; assay type: binding
T12 construct: endogenous in cells; host or cells: HEK293T
T12 sequence (P51659 1-736): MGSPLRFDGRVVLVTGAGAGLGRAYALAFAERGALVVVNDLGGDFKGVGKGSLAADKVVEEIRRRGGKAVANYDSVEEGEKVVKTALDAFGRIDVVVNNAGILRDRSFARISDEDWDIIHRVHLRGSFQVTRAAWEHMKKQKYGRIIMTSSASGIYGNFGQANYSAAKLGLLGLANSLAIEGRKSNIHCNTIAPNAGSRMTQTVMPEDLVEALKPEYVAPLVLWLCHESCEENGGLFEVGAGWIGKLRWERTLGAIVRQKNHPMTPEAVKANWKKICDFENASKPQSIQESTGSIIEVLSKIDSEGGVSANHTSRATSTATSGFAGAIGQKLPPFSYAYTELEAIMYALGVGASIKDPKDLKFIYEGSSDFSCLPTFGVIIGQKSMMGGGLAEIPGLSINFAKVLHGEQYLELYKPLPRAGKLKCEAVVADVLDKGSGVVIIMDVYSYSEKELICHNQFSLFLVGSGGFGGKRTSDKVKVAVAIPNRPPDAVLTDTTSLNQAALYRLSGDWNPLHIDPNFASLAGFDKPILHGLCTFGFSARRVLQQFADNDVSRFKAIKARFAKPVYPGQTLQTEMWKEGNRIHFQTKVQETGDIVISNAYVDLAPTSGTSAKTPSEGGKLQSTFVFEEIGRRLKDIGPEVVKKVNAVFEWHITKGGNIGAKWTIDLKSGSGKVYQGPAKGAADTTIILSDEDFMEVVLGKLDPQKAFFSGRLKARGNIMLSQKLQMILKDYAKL
Description: as §1, §2

SEC61G = target: T13, SEC61G (Homo sapiens, UniProt P60059); assay: Viral trapping in VLPs, MS analysis; assay type: binding
T13 construct: endogenous in cells; host or cells: HEK293T
T13 sequence (P60059 whole entry): as the sequence (P60059 whole entry partner) above
T13 sequence (P61619 whole entry partner): as the sequence (P61619 whole entry partner) above
T13 sequence (P60468 2-96 partner limits assumed): as the sequence (P60468 2-96 limits assumed) above
Description: as §1, §2

ECE1 = target: T14, ECE1 (Homo sapiens, UniProt P42892); assay: Viral trapping in VLPs, MS analysis; assay type: binding
T14 construct: endogenous in cells; host or cells: HEK293T
T14 sequence (P42892 whole entry): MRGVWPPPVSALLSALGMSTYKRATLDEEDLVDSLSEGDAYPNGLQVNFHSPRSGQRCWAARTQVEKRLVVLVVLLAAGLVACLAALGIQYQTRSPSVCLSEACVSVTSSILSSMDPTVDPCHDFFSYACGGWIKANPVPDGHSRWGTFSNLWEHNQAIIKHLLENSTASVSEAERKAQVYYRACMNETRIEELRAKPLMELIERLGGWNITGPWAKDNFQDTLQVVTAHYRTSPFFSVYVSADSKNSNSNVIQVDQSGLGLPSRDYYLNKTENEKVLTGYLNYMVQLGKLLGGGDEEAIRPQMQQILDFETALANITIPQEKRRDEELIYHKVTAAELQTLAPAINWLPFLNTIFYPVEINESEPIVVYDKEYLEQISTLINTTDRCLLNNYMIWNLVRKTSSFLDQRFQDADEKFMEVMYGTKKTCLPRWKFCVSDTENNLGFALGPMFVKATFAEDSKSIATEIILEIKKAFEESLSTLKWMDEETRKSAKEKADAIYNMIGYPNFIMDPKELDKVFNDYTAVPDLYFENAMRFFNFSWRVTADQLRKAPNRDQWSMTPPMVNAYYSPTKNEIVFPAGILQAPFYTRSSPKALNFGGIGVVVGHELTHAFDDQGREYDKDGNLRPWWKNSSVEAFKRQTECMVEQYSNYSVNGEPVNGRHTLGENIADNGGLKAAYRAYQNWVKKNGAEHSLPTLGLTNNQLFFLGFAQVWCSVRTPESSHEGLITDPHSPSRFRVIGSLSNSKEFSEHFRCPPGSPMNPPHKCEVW
Description: as §1, §2

SSR3 = target: T15, SSR3 (Homo sapiens, UniProt Q9UNL2); assay: Viral trapping in VLPs, MS analysis; assay type: binding; details: all proteins (incl. low confidence identifications)
T15 construct: endogenous in cells; host or cells: HEK293T
Description: as §1, §2

WDR36 = target: T16, WDR36 (Homo sapiens, UniProt Q8NI36); assay: Viral trapping in VLPs, MS analysis; assay type: binding; details: all proteins (incl. low confidence identifications)
T16 construct: endogenous in cells; host or cells: HEK293T
Description: as §1, §2

ILVBL = target: T17, ILVBL (Homo sapiens, UniProt A1L0T0); assay: Viral trapping in VLPs, MS analysis; assay type: binding; details: all proteins (incl. low confidence identifications)
T17 construct: endogenous in cells; host or cells: HEK293T
Description: as §1, §2

SEMA4G = target: T18, SEMA4G (Homo sapiens, UniProt Q9NTN9); assay: Viral trapping in VLPs, MS analysis; assay type: binding; details: all proteins (incl. low confidence identifications)
T18 construct: endogenous in cells; host or cells: HEK293T
Description: as §1, §2

[1] = all proteins (incl. low confidence identifications)
[2] = proteins identified with >1 peptide (high confidence)

CCC(=C(c1ccccc1)c1ccc(OCCN(C)Cc2cn(CCOCCOCCOCCOCCOCCNC(=O)CCC(NC(=O)c3ccc(N(C)Cc4cnc5nc(N)nc(N)c5n4)cc3)C(=O)O)nn2)cc1)c1ccccc1 (centres unmarked) [MTX-PEG6-tamoxifen]
Recurrence (x/4) (FAM62A; [1]): 1 x/4 | Recurrence (x/4) (FAM62A; [2]): 1 x/4 | Recurrence (x/4) (C28H10ORF35): 1 x/4 | Recurrence (x/4) (PRSS3): 1 x/4 | Recurrence (x/4) (RTN3): 1 x/4 | Recurrence (x/4) (MINK1): 1 x/4 | Recurrence (x/4) (NCS1): 1 x/4 | Recurrence (x/4) (REEP6; [1]): 4 x/4 | Recurrence (x/4) (REEP6; [2]): 3 x/4 | Recurrence (x/4) (CALU): 1 x/4 | Recurrence (x/4) (GRAMD4): 1 x/4 | Recurrence (x/4) (CYP51A1): 1 x/4 | Recurrence (x/4) (RNF5): 3 x/4 | Recurrence (x/4) (ITPRIPL1): 1 x/4 | Recurrence (x/4) (ATL2): 1 x/4 | Recurrence (x/4) (SEC61B): 1 x/4 | Recurrence (x/4) (HSD17B4; [1]): 4 x/4 | Recurrence (x/4) (HSD17B4; [2]): 4 x/4 | Recurrence (x/4) (SEC61G; [1]): 2 x/4 | Recurrence (x/4) (SEC61G; [2]): 1 x/4 | Recurrence (x/4) (ECE1; [1]): 1 x/4 | Recurrence (x/4) (ECE1; [2]): 1 x/4 | Recurrence (x/4) (SSR3): 1 x/4 | Recurrence (x/4) (WDR36): 1 x/4 | Recurrence (x/4) (ILVBL): 1 x/4 | Recurrence (x/4) (SEMA4G): 1 x/4
